Laboratory results reported in patent publication US6727264B1 (Synaptic Pharmaceutical Corporation, priority 2001, dated 2004).

Target: rat MCH-1 (Rattus norvegicus, UniProt P97639)
Assay: Radioligand binding assay at cloned rat MCH1 receptor ([3H] Compound A)
Set-up: host or cells: Peak rapid 293 (Peakr293) cells, transient calcium phosphate transfection, membranes
Conditions: cloned rat MCH1 receptor, membranes from Peakr293 cells, 0.08 nM [3H] Compound A; read-out: Ki (nM) rMCH1

Chain of rat MCH-1 (P97639 whole entry): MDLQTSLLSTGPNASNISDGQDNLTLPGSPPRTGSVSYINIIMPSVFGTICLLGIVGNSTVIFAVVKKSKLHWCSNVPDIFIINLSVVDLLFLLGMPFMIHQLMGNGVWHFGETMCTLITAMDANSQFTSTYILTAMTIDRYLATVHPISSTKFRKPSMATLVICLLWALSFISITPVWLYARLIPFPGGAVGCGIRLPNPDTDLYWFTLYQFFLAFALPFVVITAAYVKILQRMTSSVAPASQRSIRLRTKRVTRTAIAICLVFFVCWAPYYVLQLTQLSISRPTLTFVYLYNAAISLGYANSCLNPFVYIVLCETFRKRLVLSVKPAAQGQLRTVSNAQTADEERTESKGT

First: Cc1ccc(OCCCN2CCC(c3cccc(NC(=O)C(C)C)c3)CC2)cc1C [Example 349]
Second: Cc1ccc(OCCCCN2CCC(c3cccc(NC(=O)C(C)C)c3)CC2)cc1C [Example 379]
The Ki of the first is 10-fold lower: 20.4 nM for the first, 204 nM for the second.

Compared with `CC(C)C(=O)Nc1cccc(C2CCN(CCCOc3ccccc3Br)CC2)c1` [Example 350], `COc1ccccc1OCCCCN1CCC(c2cccc(NC(=O)C(C)C)c2)CC1` [Example 378] is 25-fold higher in Ki: 12.1 nM for the first, 308 nM for the second. The first binds more tightly here.

Compared with `CC(C)C(=O)Nc1cccc(C2CCN(CCCOc3cccc(Br)c3)CC2)c1` [Example 351], `CC(C)C(=O)Nc1cccc(C2CCN(CCCOc3ccc(Br)cc3)CC2)c1` [Example 352] is 4.6-fold lower in Ki: 61.8 nM for the first, 13.3 nM for the second. The second binds more tightly here.

First: COc1ccc(O[C@H](CCN2CCC(c3cccc(N(C)C(=O)C(C)C)c3)CC2)c2ccccc2)cc1OC [Example 353]
Second: CC(=O)c1cccc(O[C@H](CCN2CCC(c3cccc(N(C)C(=O)C(C)C)c3)CC2)c2ccccc2)c1 [Example 354]
The Ki of the first is 2-fold lower: 41.8 nM for the first, 81.6 nM for the second. The first binds more tightly here.

First: CC(=O)c1cccc(O[C@@H](CCN2CCC(c3cccc(N(C)C(=O)C(C)C)c3)CC2)c2ccccc2)c1 [Example 355]
Second: CC(=O)c1cccc(OCCCCN2CCC(c3cccc(NC(=O)C(C)C)c3)CC2)c1 [Example 375]
The Ki of the first is 1.6-fold lower: 117 nM for the first, 186 nM for the second.

Going from `CC(C)C(=O)Nc1cccc(C2CCN(C[C@H](C)COc3ccc(Br)cc3)CC2)c1` [Example 356] to `CC(C)C(=O)Nc1cccc(C2CCN(C[C@H](C)COc3ccc(F)cc3)CC2)c1` [Example 359], the Ki rises from 54.5 nM to 83.2 nM (1.5-fold).

Going from `CC(C)C(=O)Nc1cccc(C2CCN(C[C@H](C)COc3cc(F)c(F)cc3F)CC2)c1` [Example 357] to `CC(C)C(=O)Nc1cccc(C2CCN(C[C@H](C)COc3ccccc3F)CC2)c1` [Example 362], the Ki rises from 115 nM to 281 nM (2.4-fold).

Compared with `CC(C)C(=O)Nc1cccc(C2CCN(C[C@H](C)COc3cccc(Cl)c3)CC2)c1` [Example 358], `CC(C)C(=O)Nc1cccc(C2CCN(C[C@@H](C)COc3cccc(Cl)c3)CC2)c1` [Example 373] is 3.1-fold higher in Ki: 136 nM for the first, 428 nM for the second. The first binds more tightly here.

Going from `CC(C)C(=O)Nc1cccc(C2CCN(C[C@H](C)COc3cccc(F)c3)CC2)c1` [Example 360] to `CC(C)C(=O)Nc1cccc(C2CCN(C[C@@H](C)COc3cccc(F)c3)CC2)c1` [Example 366], the Ki rises from 163 nM to 646 nM (4-fold). The first binds more tightly here.

`CC(C)C(=O)Nc1cccc(C2CCN(C[C@H](C)COc3ccccc3Cl)CC2)c1` [Example 361] and `CC(C)C(=O)Nc1cccc(C2CCN(C[C@@H](C)COc3ccccc3Cl)CC2)c1` [Example 368] are within 1.5-fold of each other in Ki: 311 nM for the first, 313 nM for the second.

First: CC(C)C(=O)Nc1cccc(C2CCN(C[C@H](C)COc3ccc(Cl)cc3)CC2)c1 [Example 363]
Second: CC(C)C(=O)Nc1cccc(C2CCN(C[C@@H](C)COc3ccc(Cl)cc3)CC2)c1 [Example 369]
The Ki of the first is 4.6-fold lower: 31.6 nM for the first, 145 nM for the second.

`CC(C)C(=O)Nc1cccc(C2CCN(C[C@H](C)COc3cccc(Br)c3)CC2)c1` [Example 364] and `CC(C)C(=O)Nc1cccc(C2CCN(C[C@@H](C)COc3cccc(Br)c3)CC2)c1` [Example 371] are within 1.5-fold of each other in Ki: 144 nM for the first, 163 nM for the second.

Compared with `CC(C)C(=O)Nc1cccc(C2CCN(C[C@H](C)COc3ccccc3Br)CC2)c1` [Example 365], `CC(C)C(=O)Nc1cccc(C2CCN(C[C@@H](C)COc3ccccc3Br)CC2)c1` [Example 372] is 8.3-fold higher in Ki: 42.9 nM for the first, 358 nM for the second.

First: CC(C)C(=O)Nc1cccc(C2CCN(C[C@@H](C)COc3ccc(F)cc3)CC2)c1 [Example 367]
Second: COc1ccc(OCCCCN2CCC(c3cccc(NC(=O)C(C)C)c3)CC2)cc1 [Example 377]
The Ki of the first is 3-fold lower: 236 nM for the first, 712 nM for the second. The first binds more tightly here.

Compared with `CC(C)C(=O)Nc1cccc(C2CCN(CCCC3OCC(C)(C)CO3)CC2)c1` [Example 374], `CC(C)C(=O)Nc1cccc(C2CCN(CCCCC3OCCO3)CC2)c1` [Example 380] is 3.2-fold higher in Ki: 96.8 nM for the first, 309 nM for the second. The first binds more tightly here.

First: COc1cccc(OCCCCN2CCC(c3cccc(NC(=O)C(C)C)c3)CC2)c1 [Example 376]
Second: CC(=O)c1cccc(OCCCCCN2CCC(c3cccc(NC(=O)C(C)C)c3)CC2)c1 [Example 381]
The Ki of the first is 3.8-fold higher: 888 nM for the first, 235 nM for the second.

First: CC(=O)c1cccc(OCCCCCN2CCC(c3cccc(NC(=O)C4CC4)c3)CC2)c1 [Example 382]
Second: CC(=O)c1cccc(OCCCCCCN2CCC(c3cccc(NC(=O)C4CC4)c3)CC2)c1 [Example 384]
The Ki of the first is 4.6-fold higher: 319 nM for the first, 69 nM for the second. The second binds more tightly here.

Going from `CC(=O)c1cccc(OCCCCCCN2CCC(c3cccc(NC(=O)C(C)C)c3)CC2)c1` [Example 383] to `CC(C)C(=O)Nc1cccc(C2CCN(CCCCCc3c(-c4ccccc4)n(C)c4ccccc34)CC2)c1` [Example 395], the Ki falls from 290 nM to 2.4 nM (120-fold).

First: CC(C)C(=O)Nc1cccc(C2CCN(CCCC(Oc3ccc(Cl)cc3)c3ccc(Cl)cc3)CC2)c1 (stereo not shown) [Example 385]
Second: CC(C)C(=O)Nc1cccc(C2CCN(CCCc3c(-c4ccccc4)[nH]c4ccc(OC(F)(F)F)cc34)CC2)c1 [Example 389]
The Ki of the first is 150-fold higher: 325 nM for the first, 2.2 nM for the second. The second binds more tightly here.

`CC(C)C(=O)Nc1cccc(C2CCN(CCc3c(-c4ccccc4)n(C)c4ccccc34)CC2)c1` [Example 386] and `CC(C)C(=O)Nc1cccc(C2CCN(CCCc3c(-c4ccccc4)n(C)c4ccccc34)CC2)c1` [Example 391] are within 1.5-fold of each other in Ki: 26.3 nM for the first, 21.9 nM for the second.

`CC(C)C(=O)Nc1cccc(C2CCN(CCc3c(-c4ccccc4)[nH]c4c3ccc3ccccc34)CC2)c1` [Example 387] and `CC(C)C(=O)Nc1cccc(C2CCN(CCCc3c(-c4ccccc4)[nH]c4c3ccc3ccccc34)CC2)c1` [Example 388] are within 1.5-fold of each other in Ki: 19.7 nM for the first, 20.7 nM for the second.

First: CC(C)C(=O)Nc1cccc(C2CCN(CCCCc3c(-c4ccccc4)[nH]c4ccc(OC(F)(F)F)cc34)CC2)c1 [Example 390]
Second: CC(C)C(=O)Nc1cccc(C2CCN(CCCCCc3c(-c4ccccc4)[nH]c4ccc(OC(F)(F)F)cc34)CC2)c1 [Example 393]
The Ki of the first is 9.5-fold lower: 1 nM for the first, 9.5 nM for the second.

`CC(C)C(=O)Nc1cccc(C2CCN(CCCCc3c(-c4ccccc4)n(-c4ccccc4)c4ccccc34)CC2)c1` [Example 392] and `CC(C)C(=O)Nc1cccc(C2CCN(CCCCCc3c(-c4ccccc4)[nH]c4c3ccc3ccccc34)CC2)c1` [Example 398] are within 1.5-fold of each other in Ki: 18.1 nM for the first, 13.6 nM for the second.

Same assay, conditions: cloned rat MCH1 receptor; 0.08 nM [3H] Compound A; Peakr293 cell membranes; read-out: Ki (nM) rMCH1

Compared with `Cc1ccc2[nH]c(-c3ccccc3)c(CCN3CCC(c4cccc(NC(=O)C(C)C)c4)CC3)c2c1` [Example 399], `Cc1ccc2[nH]c(-c3ccccc3)c(CCCCN3CCC(c4cccc(NC(=O)C(C)C)c4)CC3)c2c1` [Example 421] is 18-fold lower in Ki: 31.9 nM for the first, 1.8 nM for the second.

Going from `COc1cccc2c(CCN3CCC(c4cccc(NC(=O)C(C)C)c4)CC3)c(-c3ccccc3)[nH]c12` [Example 400] to `COc1cccc2c(CCCCN3CCC(c4cccc(NC(=O)C(C)C)c4)CC3)c(-c3ccccc3)[nH]c12` [Example 406], the Ki falls from 43.9 nM to 12.3 nM (3.6-fold). The second binds more tightly here.

First: Cc1cccc2c(CCN3CCC(c4cccc(NC(=O)C(C)C)c4)CC3)c(-c3ccccc3)[nH]c12 [Example 401]
Second: Cc1cccc2c(CCCCN3CCC(c4cccc(NC(=O)C(C)C)c4)CC3)c(-c3ccccc3)[nH]c12 [Example 403]
The Ki of the first is 3.8-fold higher: 44.6 nM for the first, 11.7 nM for the second.

`CC(C)C(=O)Nc1cccc(C2CCN(CCCc3cn(-c4ccccc4)c4ccccc34)CC2)c1` [Example 407] and `CC(C)C(=O)Nc1cccc(C2CCN(CCc3cn(-c4ccccc4)c4ccccc34)CC2)c1` [Example 408] are within 1.5-fold of each other in Ki: 16.6 nM for the first, 21.6 nM for the second.

First: Cc1cccc2c(CCN3CCC(c4cccc(NC(=O)C(C)C)c4)CC3)c[nH]c12 [Example 409]
Second: Cc1cccc2c(CCCN3CCC(c4cccc(NC(=O)C(C)C)c4)CC3)c[nH]c12 [Example 417]
The Ki of the first is 4.7-fold higher: 96.7 nM for the first, 20.5 nM for the second. The second binds more tightly here.

Compared with `CC(C)C(=O)Nc1cccc(C2CCN(CCc3cn(C)c4ccccc34)CC2)c1` [Example 410], `CC(C)C(=O)Nc1cccc(C2CCN(CCCc3cn(C)c4ccccc34)CC2)c1` [Example 414] is 91-fold lower in Ki: 263 nM for the first, 2.9 nM for the second. The second binds more tightly here.

Going from `Cc1ccc2[nH]cc(CCN3CCC(c4cccc(NC(=O)C(C)C)c4)CC3)c2c1` [Example 411] to `Cc1ccc2[nH]cc(CCCN3CCC(c4cccc(NC(=O)C(C)C)c4)CC3)c2c1` [Example 415], the Ki falls from 82.3 nM to 8.1 nM (10-fold). The second binds more tightly here.

Going from `CC(C)C(=O)Nc1cccc(C2CCN(CCc3c[nH]c4ccc(OC(F)(F)F)cc34)CC2)c1` [Example 412] to `CC(C)C(=O)Nc1cccc(C2CCN(CCCc3c[nH]c4ccc(OC(F)(F)F)cc34)CC2)c1` [Example 416], the Ki falls from 27 nM to 12.6 nM (2.1-fold). The second binds more tightly here.

`CC(C)C(=O)Nc1cccc(C2CCN(CCCc3c[nH]c4c3ccc3ccccc34)CC2)c1` [Example 413] and `COc1cccc2c(CCCN3CCC(c4cccc(NC(=O)C(C)C)c4)CC3)c[nH]c12` [Example 418] are within 1.5-fold of each other in Ki: 76.8 nM for the first, 51.6 nM for the second.

Compared with `COc1cccc2c(CCN3CCC(c4cccc(NC(=O)C(C)C)c4)CC3)c[nH]c12` [Example 419], `CC(C)C(=O)Nc1cccc(C2CCN(Cc3c[nH]c4cccc(Br)c34)CC2)c1` [Example 431] is 12-fold higher in Ki: 83.9 nM for the first, 968 nM for the second.

Going from `Cc1ccc(-n2cc(CN3CCC(c4ccc(NC(=O)C(C)C)cc4)CC3)c3ccccc32)cc1` [Example 422] to `CCCC(=O)Nc1ccc(C2CCN(Cc3cn(-c4ccc(C)cc4)c4ccccc34)CC2)cc1` [Example 423], the Ki rises from 173 nM to 405 nM (2.3-fold).

Going from `CC(C)C(=O)Nc1cccc(C2CCN(Cc3c(-c4ccccc4N)[nH]c4ccccc34)CC2)c1` [Example 424] to `CC(C)C(=O)Nc1cccc(C2CCN(Cc3c(-c4ccc(F)cc4)[nH]c4ccccc34)CC2)c1` [Example 432], the Ki rises from 114 nM to 198 nM (1.7-fold).

`CCOC(=O)c1[nH]c2ccccc2c1CN1CCC(c2cccc(NC(=O)C(C)C)c2)CC1` [Example 425, ETHYL 3-({4-[3-(ISOBUTYRYLAMINO)PHENYL]-1-PIPERIDINYL}METHYL)-1H-INDOLE-2-CARBOXYLATE] and `Cc1[nH]c2ccccc2c1CN1CCC(c2cccc(NC(=O)C(C)C)c2)CC1` [Example 430] are within 1.5-fold of each other in Ki: 599 nM for the first, 647 nM for the second.

First: CC(C)C(=O)Nc1cccc(C2CCN(Cc3cn(C)c4ccccc34)CC2)c1 [Example 426]
Second: CC(C)C(=O)Nc1cccc(C2CCN(Cc3c(-c4ccccc4)n(C)c4ccccc34)CC2)c1 [Example 428]
The Ki of the first is 4.2-fold higher: 556 nM for the first, 132 nM for the second.

First: COc1ccc2[nH]c(C)c(CN3CCC(c4cccc(NC(=O)C(C)C)c4)CC3)c2c1 [Example 427]
Second: CC(C)C(=O)Nc1cccc(C2CCN(Cc3c[nH]c4ccc([N+](=O)[O-])cc34)CC2)c1 [Example 429]
The Ki of the first is 2-fold higher: 248 nM for the first, 121 nM for the second.
